Source: publication PMC9387934, “Randomized single oral dose phase 1 study of safety, tolerability, and pharmacokinetics of Iminosugar UV-4 Hydrochloride (UV-4B) in healthy subjects” (PLoS Neglected Tropical Diseases, 2022)
Structures can show the parent of a compound that is named as a salt. Where two headings read alike, the source gives them in different places.

Assay: Phase 1a single ascending dose study: UV-4 plasma concentrations and PK parameters (LC-MS/MS, noncompartmental)
Format: in vivo
Settings: for Tmax: median; for AUC(0-t): read-out: AUC(0-8); for Vd/F: read-out: Vz/F
Experimental: UV-4 ((2R,3R,4R,5S)-2-(hydroxymethyl)-1-(9-methoxynonyl)piperidine-3,4,5-triol, also called N-(9’-methoxynonyl)-1-deoxynojirimycin, or MON-DNJ) hydrochloride was evaluated in a first-in-human, randomized, single-center, double-blind, placebo-controlled, parallel group, single ascending dose Phase 1a clinical trial in healthy subjects (Figs 1 and 2, ClinicalTrials.gov Identifier NCT02061358 https://clinicaltrials.gov/ct2/show/NCT02061358). The primary objective was to determine the safety and tolerability of a single-ascending oral dose of UV-4 hydrochloride (Fig 3). […] The secondary objective was to determine PK parameters describing absorption and elimination of UV-4 following a single oral dose of UV-4 hydrochloride. Eight cohorts of eight subjects each were enrolled and completed the study. In each cohort, six subjects received UV-4 as the hydrochloride; two received placebo. Subjects were screened against study eligibility criteria up to four weeks (Days -28 to -2) before admission to the clinic (Day -1). Dosing was performed on an inpatient basis. Subjects remained in clinic for 48 hours post-dosing for PK sample collection and safety assessments and were discharged from the clinic on Day 3. Subjects returned to the clinic on Day 4 for additional safety assessments, then again on Day 9 ± 1 for a final follow-up visit.
Eligible subjects were healthy males and females, age 18–45 years, with a body mass index between 18 and 30 kg/m^2 inclusive and a minimum body weight of 60 kg. Subjects were considered healthy based on medical history, physical exam, vital signs, 12-lead electrocardiogram (ECG), clinical laboratory tests (hematology, blood chemistry, urinalysis), viral serology, and drug and alcohol screening. Male and female subjects of childbearing potential were required to use adequate contraception over the course of the clinical trial. […] Only subjects who met all inclusion and none of the exclusion criteria prior to administration of the investigational product were enrolled into the study (no exemptions were granted). A total of 64 subjects were enrolled (eight cohorts of eight subjects each). In each of the eight cohorts, six subjects were randomized to receive a single dose of UV-4 (3 to 1000 mg, depending on cohort) as the hydrochloride salt, and two subjects to receive placebo. Cohort size of six active subjects was based on analysis that increasing cohort size above six in a first-in-human study gains little in the ability to observe a drug induced event, and results in observing more events that are not related to study drug. Two of the eight subjects in each cohort (sentinel subjects; one active and one placebo) received their doses at least 48 h before the remaining subjects in each cohort.
On each day of use, bulk drug substance (UV-4B for solubilization, SAI Life Sciences Ltd. Telangana, India) was removed from a single-use container, weighed at the study center, and solubilized in 20 mL sterile water for injection (SWFI) (Hospira Inc. Illinois, United States of America). Weight of solid drug substance was converted to dose of UV-4 by applying purity and salt correction factor per pharmacy manual when preparing the dosing solution. UV-4B solution was administered orally with 10 mL of taste-masking agent, OraSweet-SF (Paddock Laboratories LLC, Minneapolis, United States of America) in a total volume of 30 mL, to assist in maintaining study blinding. Placebo was SWFI (20 mL) plus OraSweet-SF (10 mL). Concentrations and doses were calculated and expressed as the active free base form, UV-4. This methodology is consistent with USP<1121>, which recommends that the strength of a drug product or preparation is expressed in terms of the active moiety. Following consumption of active or placebo solution, the dosing container was rinsed with 50 mL of tap water also consumed by subjects. […]

[1] = 3 mg single oral dose, Geo Mean
[2] = 10 mg single oral dose, Ar Mean
[3] = 10 mg single oral dose, Geo Mean
[4] = 30 mg single oral dose, Ar Mean
[5] = 30 mg single oral dose, Geo Mean
[6] = 90 mg single oral dose, Ar Mean
[7] = 90 mg single oral dose, Geo Mean
[8] = 180 mg single oral dose, Ar Mean
[9] = 180 mg single oral dose, Geo Mean
[10] = 360 mg single oral dose, Ar Mean
[11] = 360 mg single oral dose, Geo Mean
[12] = 720 mg single oral dose, Ar Mean
[13] = 720 mg single oral dose, Geo Mean
[14] = 1000 mg single oral dose, Ar Mean
[15] = 1000 mg single oral dose, Geo Mean
[16] = both sexes, human, plasma, po, 3 mg, 3 mg single oral dose, Ar Mean
[17] = both sexes, human, plasma, po, 3 mg, 3 mg single oral dose, Geo Mean
[18] = both sexes, human, plasma, po, 10 mg, 10 mg single oral dose, Ar Mean
[19] = both sexes, human, plasma, po, 10 mg, 10 mg single oral dose, Geo Mean
[20] = both sexes, human, plasma, po, 30 mg, 30 mg single oral dose, Ar Mean
[21] = both sexes, human, plasma, po, 30 mg, 30 mg single oral dose, Geo Mean
[22] = both sexes, human, plasma, po, 90 mg, 90 mg single oral dose, Ar Mean
[23] = both sexes, human, plasma, po, 90 mg, 90 mg single oral dose, Geo Mean
[24] = both sexes, human, plasma, po, 180 mg, 180 mg single oral dose, Ar Mean
[25] = both sexes, human, plasma, po, 180 mg, 180 mg single oral dose, Geo Mean
[26] = both sexes, human, plasma, po, 360 mg, 360 mg single oral dose, Ar Mean
[27] = both sexes, human, plasma, po, 360 mg, 360 mg single oral dose, Geo Mean
[28] = both sexes, human, plasma, po, 720 mg, 720 mg single oral dose, Ar Mean
[29] = both sexes, human, plasma, po, 720 mg, 720 mg single oral dose, Geo Mean
[30] = both sexes, human, plasma, po, 1000 mg, 1000 mg single oral dose, Ar Mean
[31] = both sexes, human, plasma, po, 1000 mg, 1000 mg single oral dose, Geo Mean

## COCCCCCCCCCN1C[C@H](O)[C@@H](O)[C@H](O)[C@H]1CO [UV-4B, N-(9’-methoxynonyl)-1-deoxynojirimycin hydrochloride]
3 mg single oral dose, Ar Mean
  AUC(0-inf): 95.6 ng·h/mL
  CL/F: 32.1 L/h
  Cmax: 22.4 ng/mL
  DNAUC(0-inf): 31.9 ng·h/mL/mg
  DNCmax: 7.45 ng/mL/mg
  t1/2: 10.7 h
[1]
  CL/F: 31.7 L/h
  Cmax: 22.1 ng/mL
  DNAUC(0-inf): 31.5 ng·h/mL/mg
  DNCmax: 7.38 ng/mL/mg
  t1/2: 10.3 h
3 mg single oral dose
  Tmax: 0.50 h
[2]
  CL/F: 24.3 L/h
  Cmax: 84.6 ng/mL
  DNAUC(0-inf): 43.1 ng·h/mL/mg
  DNCmax: 8.46 ng/mL/mg
  t1/2: 12.0 h
[3]
  CL/F: 23.8 L/h
  Cmax: 82.6 ng/mL
  DNAUC(0-inf): 42.0 ng·h/mL/mg
  DNCmax: 8.26 ng/mL/mg
  t1/2: 11.9 h
10 mg single oral dose
  Tmax: 1.00 h
[4]
  CL/F: 24.0 L/h
  Cmax: 293 ng/mL
  DNAUC(0-inf): 42.0 ng·h/mL/mg
  DNCmax: 9.76 ng/mL/mg
  t1/2: 10.0 h
[5]
  CL/F: 23.9 L/h
  Cmax: 289 ng/mL
  DNAUC(0-inf): 41.8 ng·h/mL/mg
  DNCmax: 9.64 ng/mL/mg
  t1/2: 9.98 h
30 mg single oral dose
  Tmax: 0.50 h
[6]
  CL/F: 24.5 L/h
  Cmax: 946 ng/mL
  DNAUC(0-inf): 41.4 ng·h/mL/mg
  DNCmax: 10.5 ng/mL/mg
  t1/2: 10.4 h
[7]
  CL/F: 24.3 L/h
  Cmax: 900 ng/mL
  DNAUC(0-inf): 41.1 ng·h/mL/mg
  DNCmax: 10.0 ng/mL/mg
  t1/2: 10.2 h
90 mg single oral dose
  Tmax: 0.50 h
[8]
  CL/F: 25.4 L/h
  Cmax: 2150 ng/mL
  DNAUC(0-inf): 39.5 ng·h/mL/mg
  DNCmax: 12.0 ng/mL/mg
  t1/2: 8.71 h
[9]
  CL/F: 25.4 L/h
  Cmax: 2060 ng/mL
  DNAUC(0-inf): 39.4 ng·h/mL/mg
  DNCmax: 11.5 ng/mL/mg
  t1/2: 8.66 h
180 mg single oral dose
  Tmax: 0.75 h
[10]
  CL/F: 26.5 L/h
  Cmax: 4570 ng/mL
  DNAUC(0-inf): 38.4 ng·h/mL/mg
  DNCmax: 12.7 ng/mL/mg
  t1/2: 8.14 h
[11]
  CL/F: 26.3 L/h
  Cmax: 4490 ng/mL
  DNAUC(0-inf): 38.1 ng·h/mL/mg
  DNCmax: 12.5 ng/mL/mg
  t1/2: 8.11 h
360 mg single oral dose
  Tmax: 0.50 h
[12]
  CL/F: 22.1 L/h
  Cmax: 9930 ng/mL
  DNAUC(0-inf): 45.7 ng·h/mL/mg
  DNCmax: 13.8 ng/mL/mg
  t1/2: 8.19 h
[13]
  CL/F: 22.0 L/h
  Cmax: 9760 ng/mL
  DNAUC(0-inf): 45.5 ng·h/mL/mg
  DNCmax: 13.6 ng/mL/mg
  t1/2: 8.18 h
720 mg single oral dose
  Tmax: 0.75 h
[14]
  CL/F: 23.6 L/h
  Cmax: 13100 ng/mL
  DNAUC(0-inf): 43.1 ng·h/mL/mg
  DNCmax: 13.1 ng/mL/mg
  t1/2: 8.83 h
[15]
  CL/F: 23.4 L/h
  Cmax: 13000 ng/mL
  DNAUC(0-inf): 42.8 ng·h/mL/mg
  DNCmax: 13.0 ng/mL/mg
  t1/2: 8.58 h
1000 mg single oral dose
  Tmax: 1.00 h
[16]
  AUC(0-t): 56.5 ng·h/mL
  Vd/F: 491 L
[17]
  AUC(0-t): 55.9 ng·h/mL
  Vd/F: 470 L
Both sexes, human, plasma, po, 3 mg, 3 mg single oral dose, Geo Mean, read-out: AUC(0-inf)
  AUC(0-inf): 94.6 ng·h/mL
[18]
  AUC(0-t): 271 ng·h/mL
  Vd/F: 424 L
Both sexes, human, plasma, po, 10 mg, 10 mg single oral dose, Ar Mean, read-out: AUC(0-inf)
  AUC(0-inf): 431 ng·h/mL
[19]
  AUC(0-t): 265 ng·h/mL
  Vd/F: 409 L
Both sexes, human, plasma, po, 10 mg, 10 mg single oral dose, Geo Mean, read-out: AUC(0-inf)
  AUC(0-inf): 420 ng·h/mL
[20]
  AUC(0-t): 901 ng·h/mL
  Vd/F: 349 L
Both sexes, human, plasma, po, 30 mg, 30 mg single oral dose, Ar Mean, read-out: AUC(0-inf)
  AUC(0-inf): 1260 ng·h/mL
[21]
  AUC(0-t): 896 ng·h/mL
  Vd/F: 344 L
Both sexes, human, plasma, po, 30 mg, 30 mg single oral dose, Geo Mean, read-out: AUC(0-inf)
  AUC(0-inf): 1260 ng·h/mL
[22]
  AUC(0-t): 2800 ng·h/mL
  Vd/F: 365 L
Both sexes, human, plasma, po, 90 mg, 90 mg single oral dose, Ar Mean, read-out: AUC(0-inf)
  AUC(0-inf): 3730 ng·h/mL
[23]
  AUC(0-t): 2790 ng·h/mL
  Vd/F: 358 L
Both sexes, human, plasma, po, 90 mg, 90 mg single oral dose, Geo Mean, read-out: AUC(0-inf)
  AUC(0-inf): 3700 ng·h/mL
[24]
  AUC(0-t): 5910 ng·h/mL
  Vd/F: 321 L
Both sexes, human, plasma, po, 180 mg, 180 mg single oral dose, Ar Mean, read-out: AUC(0-inf)
  AUC(0-inf): 7110 ng·h/mL
[25]
  AUC(0-t): 5880 ng·h/mL
  Vd/F: 317 L
Both sexes, human, plasma, po, 180 mg, 180 mg single oral dose, Geo Mean, read-out: AUC(0-inf)
  AUC(0-inf): 7090 ng·h/mL
[26]
  AUC(0-t): 11900 ng·h/mL
  Vd/F: 309 L
Both sexes, human, plasma, po, 360 mg, 360 mg single oral dose, Ar Mean, read-out: AUC(0-inf)
  AUC(0-inf): 13800 ng·h/mL
[27]
  AUC(0-t): 11800 ng·h/mL
  Vd/F: 308 L
Both sexes, human, plasma, po, 360 mg, 360 mg single oral dose, Geo Mean, read-out: AUC(0-inf)
  AUC(0-inf): 13700 ng·h/mL
[28]
  AUC(0-t): 29100 ng·h/mL
  Vd/F: 260 L
Both sexes, human, plasma, po, 720 mg, 720 mg single oral dose, Ar Mean, read-out: AUC(0-inf)
  AUC(0-inf): 32900 ng·h/mL
[29]
  AUC(0-t): 28900 ng·h/mL
  Vd/F: 259 L
Both sexes, human, plasma, po, 720 mg, 720 mg single oral dose, Geo Mean, read-out: AUC(0-inf)
  AUC(0-inf): 32800 ng·h/mL
[30]
  AUC(0-t): 38700 ng·h/mL
  Vd/F: 299 L
Both sexes, human, plasma, po, 1000 mg, 1000 mg single oral dose, Ar Mean, read-out: AUC(0-inf)
  AUC(0-inf): 43100 ng·h/mL
[31]
  AUC(0-t): 38500 ng·h/mL
  Vd/F: 290 L
Both sexes, human, plasma, po, 1000 mg, 1000 mg single oral dose, Geo Mean, read-out: AUC(0-inf)
  AUC(0-inf): 42800 ng·h/mL
